{
  "source": "patent US9532990B2",
  "about": "(Zhejiang DTRM Biopharma Co. Ltd., priority 2014, dated 2017)",
  "assay": "Toxicokinetic (TK) study in rats, 28-day",
  "format": "in vivo, rat",
  "conditions": "for Cmax / Tmax / AUC(0-t): rat, in vivo; for AUC(0-t): read-out: AUC0-24 h",
  "key": {"[1]": {"conditions": "female, 40 mg/kg, Study Day 1, Female"}, "[2]": {"conditions": "female, 40 mg/kg, Study Day 28, Female"}, "[3]": {"conditions": "female, 100 mg/kg, Study Day 1, Female"}, "[4]": {"conditions": "female, 100 mg/kg, Study Day 28, Female"}, "[5]": {"conditions": "female, 200 mg/kg, Study Day 1, Female"}, "[6]": {"conditions": "female, 200 mg/kg, Study Day 28, Female"}, "[7]": {"conditions": "male, 40 mg/kg, Study Day 1, Male"}, "[8]": {"conditions": "male, 40 mg/kg, Study Day 28, Male"}, "[9]": {"conditions": "male, 100 mg/kg, Study Day 1, Male"}, "[10]": {"conditions": "male, 100 mg/kg, Study Day 28, Male"}, "[11]": {"conditions": "male, 200 mg/kg, Study Day 1, Male"}, "[12]": {"conditions": "male, 200 mg/kg, Study Day 28, Male"}},
  "note": "Like-named read-outs stand apart in the source and are kept apart here.",
  "data": [
    {"smiles": "C=CC(=O)N1CC[C@@H](n2nc(-c3ccc(Oc4c(F)c(F)cc(F)c4F)cc3F)c3c(N)ncnc32)C1", "note": "[Compound 45, 1-((R)-3-(4-amino-3-(2-fluoro-4-(2,3,5,6-tetrafluorophenoxy)phenyl)-1H-pyrazolo[3,4-d]pyrimidin-1-yl)pyrrolidin-1-yl)prop-2-en-1-one]", "values": [
      {"measurement": "AUC compared with ibrutinib", "setting": "TK data", "value": "significantly higher than that of ibrutinib"},
      {"measurement": "Cmax", "setting": "[1]", "value": 2660, "unit": "ng/mL"},
      {"measurement": "Tmax", "setting": "[1]", "value": 1, "unit": "h"},
      {"measurement": "AUC(0-t)", "setting": "[1]", "value": 17300, "unit": "ng·h/mL"},
      {"measurement": "Cmax", "setting": "[2]", "value": 2970, "unit": "ng/mL"},
      {"measurement": "Tmax", "setting": "[2]", "value": 1, "unit": "h"},
      {"measurement": "AUC(0-t)", "setting": "[2]", "value": 17300, "unit": "ng·h/mL"},
      {"measurement": "Cmax", "setting": "[3]", "value": 3700, "unit": "ng/mL"},
      {"measurement": "Tmax", "setting": "[3]", "value": 4, "unit": "h"},
      {"measurement": "AUC(0-t)", "setting": "[3]", "value": 28900, "unit": "ng·h/mL"},
      {"measurement": "Cmax", "setting": "[4]", "value": 3830, "unit": "ng/mL"},
      {"measurement": "Tmax", "setting": "[4]", "value": 1, "unit": "h"},
      {"measurement": "AUC(0-t)", "setting": "[4]", "value": 29600, "unit": "ng·h/mL"},
      {"measurement": "Cmax", "setting": "[5]", "value": 4680, "unit": "ng/mL"},
      {"measurement": "Tmax", "setting": "[5]", "value": 4, "unit": "h"},
      {"measurement": "AUC(0-t)", "setting": "[5]", "value": 65200, "unit": "ng·h/mL"},
      {"measurement": "Cmax", "setting": "[6]", "value": 5490, "unit": "ng/mL"},
      {"measurement": "Tmax", "setting": "[6]", "value": 8, "unit": "h"},
      {"measurement": "AUC(0-t)", "setting": "[6]", "value": 60200, "unit": "ng·h/mL"},
      {"measurement": "Cmax", "setting": "[7]", "value": 2160, "unit": "ng/mL"},
      {"measurement": "Tmax", "setting": "[7]", "value": 2, "unit": "h"},
      {"measurement": "AUC(0-t)", "setting": "[7]", "value": 13700, "unit": "ng·h/mL"},
      {"measurement": "Cmax", "setting": "[8]", "value": 2090, "unit": "ng/mL"},
      {"measurement": "Tmax", "setting": "[8]", "value": 2, "unit": "h"},
      {"measurement": "AUC(0-t)", "setting": "[8]", "value": 15400, "unit": "ng·h/mL"},
      {"measurement": "Cmax", "setting": "[9]", "value": 2740, "unit": "ng/mL"},
      {"measurement": "Tmax", "setting": "[9]", "value": 2, "unit": "h"},
      {"measurement": "AUC(0-t)", "setting": "[9]", "value": 21700, "unit": "ng·h/mL"},
      {"measurement": "Cmax", "setting": "[10]", "value": 3990, "unit": "ng/mL"},
      {"measurement": "Tmax", "setting": "[10]", "value": 2, "unit": "h"},
      {"measurement": "AUC(0-t)", "setting": "[10]", "value": 30300, "unit": "ng·h/mL"},
      {"measurement": "Cmax", "setting": "[11]", "value": 4220, "unit": "ng/mL"},
      {"measurement": "Tmax", "setting": "[11]", "value": 2, "unit": "h"},
      {"measurement": "AUC(0-t)", "setting": "[11]", "value": 37600, "unit": "ng·h/mL"},
      {"measurement": "Cmax", "setting": "[12]", "value": 4540, "unit": "ng/mL"},
      {"measurement": "Tmax", "setting": "[12]", "value": 2, "unit": "h"},
      {"measurement": "AUC(0-t)", "setting": "[12]", "value": 45100, "unit": "ng·h/mL"}
    ]}
  ]
}
